These results are taken from article PMC3034256 (Chemistry & biology, 2011).

In test [1] the test system is panel of PTPs. Description: Screen against a panel of PTPs at 10 µM. The note with it: 10 µM compound, pNPP, pH 7, 25 °C. It counts as biochemical.
Test [2] has as its system Jurkat T cells. Description: TCR-mediated ERK1/2 activation in Jurkat T cells. It counts as cell-based. The note with it: 2 h pretreatment (2 µM), 10 µg/mL anti-CD3.
Test [3] deals with Jurkat T cells. Description: TCR-mediated tyrosine phosphorylation in Jurkat T cells. It is filed as cell-based. The note with it: 2 h pretreatment (2 µM; TTN 2–4 µM), 10 µg/mL anti-CD3.

With `CO[C@H]([C@H](O)CC(=O)[C@@H](C)[C@@H](O)CC[C@@H](C)[C@@H]1O[C@]2(CC[C@@H](C)[C@H](CC[C@H](C)C(C)=O)O2)CC[C@@H]1C)[C@H](OC(=O)C[C@@H](O)C1=C(C)C(=O)OC1=O)C(C)C` [TTM, tautomycin, reference compound], the “inhibitory activity against the panel of PTPs” value in test [1] is reported as “neither TTM nor its analogs exhibited any inhibitory activity”. In addition, in test [2], the “effect on TCR-mediated ERK1/2 activation” value is given as “no appreciable change”. Besides, the “effect on TCR-mediated tyrosine phosphorylation” value in test [3] is listed as “had no effect”.
